Key:
NKG2D-Fc [1] = target: T1, NKG2D-Fc (Homo sapiens, UniProt P26718); assay: Size-exclusion chromatography co-elution with NKG2D-Fc; type: binding
T1 construct: the extracellular domain of NKG2D was fused with an IgG Fc fragment; made in house; host or cells: CHO cells
T1 sequence (P26718 73-216 limits assumed): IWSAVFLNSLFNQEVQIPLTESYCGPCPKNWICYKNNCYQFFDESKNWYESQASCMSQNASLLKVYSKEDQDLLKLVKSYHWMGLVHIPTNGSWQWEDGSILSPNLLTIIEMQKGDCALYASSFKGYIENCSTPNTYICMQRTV

NKG2D-Fc [2] = target: T1, NKG2D-Fc; assay: Flow cytometry on streptavidin sepharose beads coated with NKG2D-Fc; type: binding; conditions: 300 nM
Method: HT1080.hPSMA and PC3.hACP3 cell lines were generated by lentiviral transduction on wild type cells (HT1080.wt and PC3.wt), according to published procedures9. For long-term storage, cell lines were maintained in liquid nitrogen. Prior to in vitro and in vivo experiments, cells were cultured in DMEM (PC3.wt, PC3.hACP3, HT1080.wt, and HT1080.hPSMA) or RPMI medium (SK-RC-52) (medium provided by Invitrogen) supplemented with FCS (10%, Invitrogen) and antibiotic-antimycotic (1%, AA, Invitrogen) at 37 °C and 5% CO2. For passaging, cells were detached using Trypsin-EDTA 0.05% (Invitrogen) when reaching 90% confluency and re-seeded at a dilution of 1:3 (PC3.hACP3 and PC3.wt) […]
2.17 Flow cytometry experiments on cells
Cancer cells were detached with an Accutase® cell detachment solution, resuspended in a standard culture medium, and transferred to falcon tubes. Cells were counted and centrifuged at 400 rcf for 3 min. […] Data were acquired halting the measurement at 10´ 000 events on a Cytoflex S flow cytometer (Beckman Coulter), and analyzed using the FlowJo software v10 (BD Biosciences). […]
plate (20 µL/well). […] Data were acquired halting the measurement at 10’000 events on a Cytoflex S flow cytometer (Beckman Coulter) and analyzed using the FlowJo software v10 (BD Biosciences). […]

## CC(C)Oc1ccc(-c2cccc(C[C@H](NC(=O)c3ccccc3-c3ccc(C(F)(F)F)cc3)C(=O)N[C@@H](CCCCNC(=S)Nc3ccc4c(c3)C(=O)OC43c4ccc(O)cc4Oc4cc(O)ccc43)C(=O)O)c2)c(F)c1 [compound 30]
NKG2D-Fc [1]
  co-elution with NKG2D-Fc in size-exclusion chromatography: kinetically stable complex
NKG2D-Fc [2]
  binding on NKG2D-Fc-coated streptavidin sepharose beads by flow cytometry: significant shift in binding
